Results as given in patent US20040248913A1, “(Pyridinyl and pyrimidyl) trienoic acid derivatives as retinoid x receptor modulators” (priority 2001, published 2004).

Biological target: T1, RXRα:PPARγ heterodimer (Homo sapiens, UniProt P19793)
T1 construct: expressed in transfected cells; host or cells: CV-1 cells
T1 sequence (P19793 1-462): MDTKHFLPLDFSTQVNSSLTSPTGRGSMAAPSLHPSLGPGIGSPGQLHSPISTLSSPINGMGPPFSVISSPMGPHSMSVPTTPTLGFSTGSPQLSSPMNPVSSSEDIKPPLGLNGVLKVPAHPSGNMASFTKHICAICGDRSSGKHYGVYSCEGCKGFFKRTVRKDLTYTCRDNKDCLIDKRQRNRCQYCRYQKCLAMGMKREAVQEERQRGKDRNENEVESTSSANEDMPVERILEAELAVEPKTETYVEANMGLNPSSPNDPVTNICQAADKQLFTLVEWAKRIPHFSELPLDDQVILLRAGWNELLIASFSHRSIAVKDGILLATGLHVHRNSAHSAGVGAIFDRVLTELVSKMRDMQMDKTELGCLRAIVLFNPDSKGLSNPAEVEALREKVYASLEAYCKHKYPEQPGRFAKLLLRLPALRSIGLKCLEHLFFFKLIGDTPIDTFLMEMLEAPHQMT
T1 sequence (P37231 1-505 partner): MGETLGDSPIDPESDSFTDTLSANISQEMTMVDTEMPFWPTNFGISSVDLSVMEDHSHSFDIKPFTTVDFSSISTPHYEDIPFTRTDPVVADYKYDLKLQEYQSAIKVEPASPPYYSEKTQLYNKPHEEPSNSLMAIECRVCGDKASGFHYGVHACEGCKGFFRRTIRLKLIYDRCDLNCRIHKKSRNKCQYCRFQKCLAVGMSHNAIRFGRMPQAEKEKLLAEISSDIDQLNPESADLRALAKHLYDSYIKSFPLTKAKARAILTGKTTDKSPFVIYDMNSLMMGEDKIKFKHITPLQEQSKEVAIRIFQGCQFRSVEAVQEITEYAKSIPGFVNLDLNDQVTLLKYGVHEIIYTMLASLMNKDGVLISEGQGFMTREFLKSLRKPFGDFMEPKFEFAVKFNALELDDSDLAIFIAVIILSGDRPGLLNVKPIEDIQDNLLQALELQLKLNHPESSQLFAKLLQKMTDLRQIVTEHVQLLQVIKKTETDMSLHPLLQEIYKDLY
Experiment: RXR:PPARγ heterodimer cotransfection assay in CV-1 cells
Type: cell-based
Conditions: for Synergy Efficacy (%): maximal response in presence of 100 nM BRL49653 relative to response of BRL49653 alone; for Agonist Efficacy (%): maximal response relative to response of the thiazolidinedione BRL49653
From the text: In the co-transfection assay, cloned cDNA for one or more IRs (e.g., human RARα, RXRα, or PPARγ), alone or in combination (i.e. for heterodimer assays) under the control of a constitutive promoter (e.g., the SV 40, RSV or CMV promoter) is introduced by transfection (a procedure to introduce exogenous genes into cells) into a background cell substantially devoid of endogenous IRs. These introduced gene(s) direct the recipient cells to make the IR protein(s) of interest. A further gene is also introduced (co-transfected) into the same cells in conjunction with the IR gene(s). This further gene, comprising the cDNA for a reporter protein, such as firefly luciferase (LUC), controlled by an appropriate hormone responsive promoter containing a hormone response element (HRE). This reporter plasmid functions as a reporter for the transcriptional-modulating activity of the target IR(s). Thus, the reporter acts as a surrogate for the products (mRNA then protein) normally expressed by a gene under control of the target receptor(s) and their native hormone(s).
The compounds of the present invention were further tested for activity on RXR heterodimers with RARα, RARγ or PPARγ utilizing the cotransfection assay in CV-1 cells as described in Example 6A. The RXR:RAR heterodimer cotransfection assays utilized the following expression plasmids and reporter plasmid: pRShRARα (10 ng/well, Giguere et al., Nature, 330:624 (1987) the disclosure of which is herein incorporated by reference) or pRShRARγ (10 ng/well, Ishikawa et al., Mol. Endocrin., 4:837 (1990) the disclosure of which is herein incorporated by reference) with Δ-MTV-LUC (50 ng/well, Hollenberg and Evans, Cell, 55:899 (1988), the disclosure of which is herein incorporated by reference) containing an RARE which is referred to as two copies of the TRE-palindromic response element described in Umesono et al., Nature, 336:262 (1988), the disclosure of which is herein incorporated by reference. For the RSR:PPARγ heterodimer cotransfection assay, the RXRα receptor expression plasmid, pRShRXRα (10 ng/well), was cotrasfected with the PPARγ expression plasmid, pCMVhPPARγ (10 ng/well), and a reporter plasmid containing three copies of a PPARγ response element (pPREA3-tk-LUC, 50 ng/well; Mukherjee et al., Journ. Biol. Chem., 272:8071-8076 (1997) and references cited therein, the disclosures of which are herein incorporated by reference).
Cotransfections were performed as described in Example 6A. […] Antagonist efficacy and IC50 values were determined as in Example 6A.
Compounds of the present invention were also tested for the ability to synergize with an RAR or PPARγ agonist in the context of an RXR heterodimer. For these assays the compounds were added to the cells with a fixed concentration of TTNPB (1×10^−9 M) for RXR:RAR heterodimer assay or BRL 49633 (1×10^−7 M) for the RXR:PPARγ heterodimer assay. Efficacy of the compounds of the present invention in the agonist and synergy assays was calculated as the maximum response obtained over the range of the dose response curve relative to the maximum response obtained by the reference agonist. Antagonist efficacy was determined as a function (%) of maximal inhibition.
Kliewer et al., Nature 358:771-774 (1992). To examine the effects of the compounds of the present invention on the transcriptional properties of the RXR:PPARγ, a heterodimer cotransfection assay as described above was employed.

Compound	Synergy Efficacy (%)	Agonist Efficacy (%)	RXR:PPARγ agonist activity alone (in words) (alone)	RXR:PPARγ activity in combination with the PPARγ ligand (in words) (in combination with the PPARγ ligand)
CCCOc1c(\C(C)=C/C=C/C(C)=C/C(=O)O)cc(C(C)C)nc1C(C)C [Example 2, 7-(2,6-Diisopropyl-3-propoxy-pyridin-4-yl)-3-methyl-octa-2(E),4(E),6(Z)-trienoic Acid]	150%	32%	–	–
CCOc1c(\C(C)=C/C=C/C(C)=C/C(=O)O)cc(C(C)C)nc1C(C)C [Example 3, 7-(2,6-Diisopropyl-3-ethoxy-pyridin-4-yl)-3-methyl-octa-2(E),4(E),6(Z)-trienoic acid]	182%	42%	–	–
C/C(=C/C=C/C(C)=C/C(=O)O)c1cc(C(C)C)nc(C(C)C)c1OCC(F)(F)F [Example 5, 7-[2,6-Diisopropyl-3-(2,2,2-trifluoro-ethoxy)-pyridin-4-yl]-3-methyl-octa-2(E),4(E),6(Z)-trienoic acid]	107%	55%	–	–
CCCCOc1c(\C(C)=C/C=C/C(C)=C/C(=O)O)cc(C(C)C)nc1C(C)C [Example 1, 7-(3-Butoxy-2,6-diisopropyl-pyridin-4-yl)-3-methyl-octa-2(E),4(E),6(Z)-trienoic Acid]	25%	11%	partial agonists	stronger activity
C/C(=C/C=C/C(C)=C/C(=O)O)c1cc(C(C)C)nc(C(C)C)c1OCC(F)F [Example 4, 7-[3-(2,2-Difluoro-ethoxy)-2,6-diisopropyl-pyridin-4-yl]-3-methyl-octa-2(E),4(E),6(Z)-trienoic acid]	233%	53%	–	–
